Results from ChEMBL document CHEMBL1201862, “PubChem BioAssay data set” (2004).
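Compound exposure: 48 hours, 5 concentrations, 96-well plates. GI50 marks 50% less growth.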 Activity calls are given as the source filed them. Rule as the data show it: active = GI50 up to about 1.1 µM and inactive = higher.

What was measured:
Assay in all cases: growth of human tumour cells (NCI), 48 h
MDA-MB-435 = test system: MDA-MB-435
ACHN = test system: ACHN
OVCAR-5 = test system: OVCAR-5
NCI-H226 = test system: NCI-H226
SF-295 = test system: SF-295
Hs-578T = test system: Hs-578T
Malme-3M = test system: Malme-3M
HT-29 = test system: HT-29
M14 = test system: M14
SN12C = test system: SN12C
SK-MEL-28 = test system: SK-MEL-28
A549 = test system: A549
COLO 205 = test system: COLO 205
SNB-75 = test system: SNB-75
NCI-H23 = test system: NCI-H23
T47D = test system: T47D
UO-31 = test system: UO-31
CAKI-1 = test system: CAKI-1
DU-145 = test system: DU-145
MCF7 = test system: MCF7
KM12 = test system: KM12
SF-268 = test system: SF-268
K562 = test system: K562
UACC-257 = test system: UACC-257
SF-539 = test system: SF-539
OVCAR-8 = test system: OVCAR-8
OVCAR-3 = test system: OVCAR-3
U-251 = test system: U-251
NCI-H460 = test system: NCI-H460
RXF 393 = test system: RXF 393
MDA-MB-231 = test system: MDA-MB-231
MOLT-4 = test system: MOLT-4
SK-OV-3 = test system: SK-OV-3
IGROV-1 = test system: IGROV-1
SK-MEL-5 = test system: SK-MEL-5
SK-MEL-2 = test system: SK-MEL-2
SNB-19 = test system: SNB-19
CCRF-CEM = test system: CCRF-CEM
LOX IMVI = test system: LOX IMVI
SR = test system: SR
SW-620 = test system: SW-620
EKVX = test system: EKVX
HCT-116 = test system: HCT-116
OVCAR-4 = test system: OVCAR-4
PC-3 = test system: PC-3
RPMI-8226 = test system: RPMI-8226
TK-10 = test system: TK-10
HOP-62 = test system: HOP-62
HOP-92 = test system: HOP-92
UACC-62 = test system: UACC-62
786-0 = test system: 786-0
HL-60 = test system: HL-60
HCC 2998 = test system: HCC 2998
MDA-N = test system: MDA-N
HCT-15 = test system: HCT-15
NCI/ADR-RES = test system: NCI/ADR-RES

CC1(C)NC(C(=O)c2ccccc2)=[N+]([O-])C1(O)c1ccccc1 (stereo unspecified)
GI50 (MDA-MB-435): > 100 µM (inactive)
GI50 (ACHN): > 100 µM (inactive)
GI50 (OVCAR-5): > 100 µM (inactive)
GI50 (NCI-H226): > 100 µM (inactive)
GI50 (SF-295): > 100 µM (inactive)
GI50 (Hs-578T): > 100 µM (inactive)
GI50 (Malme-3M): > 100 µM (inactive)
GI50 (HT-29): > 100 µM (inactive)
GI50 (M14): > 100 µM (inactive)
GI50 (SN12C): > 100 µM (inactive)
GI50 (SK-MEL-28): > 100 µM (inactive)
GI50 (A549): > 100 µM (inactive)
GI50 (COLO 205): > 100 µM (inactive)
GI50 (SNB-75): > 100 µM (inactive)
GI50 (NCI-H23): > 100 µM (inactive)
GI50 (T47D): > 100 µM (inactive)
GI50 (UO-31): 69.8 µM (inactive)
GI50 (CAKI-1): > 100 µM (inactive)
GI50 (DU-145): > 100 µM (inactive)
GI50 (MCF7): > 100 µM (inactive)
GI50 (KM12): > 100 µM (inactive)
GI50 (SF-268): > 100 µM (inactive)
GI50 (K562): > 100 µM (inactive)
GI50 (UACC-257): 54.5 µM (inactive)
GI50 (SF-539): > 100 µM (inactive)
GI50 (OVCAR-8): > 100 µM (inactive)
GI50 (OVCAR-3): 95.3 µM (inactive)
GI50 (U-251): > 100 µM (inactive)
GI50 (NCI-H460): > 100 µM (inactive)
GI50 (RXF 393): > 100 µM (inactive)
GI50 (MDA-MB-231): > 100 µM (inactive)
GI50 (MOLT-4): > 100 µM (inactive)
GI50 (SK-OV-3): > 100 µM (inactive)
GI50 (IGROV-1): > 100 µM (inactive)
GI50 (SK-MEL-5): 93.3 µM (inactive)
GI50 (SK-MEL-2): > 100 µM (inactive)
GI50 (SNB-19): > 100 µM (inactive)
GI50 (CCRF-CEM): > 100 µM (inactive)
GI50 (LOX IMVI): > 100 µM (inactive)
GI50 (SR): > 100 µM (inactive)
GI50 (SW-620): > 100 µM (inactive)
GI50 (EKVX): > 100 µM (inactive)
GI50 (HCT-116): 74.5 µM (inactive)
GI50 (OVCAR-4): > 100 µM (inactive)
GI50 (PC-3): > 100 µM (inactive)
GI50 (RPMI-8226): > 100 µM (inactive)
GI50 (TK-10): > 100 µM (inactive)
GI50 (HOP-62): > 100 µM (inactive)
GI50 (HOP-92): > 100 µM (inactive)
GI50 (UACC-62): > 100 µM (inactive)
GI50 (786-0): > 100 µM (inactive)
GI50 (HL-60): > 100 µM (inactive)
GI50 (HCC 2998): > 100 µM (inactive)
GI50 (MDA-N): > 100 µM (inactive)
GI50 (HCT-15): 81.3 µM
GI50 (NCI/ADR-RES): > 100 µM (inactive)
